Data taken from patent US11807906B2, “Peroxisome biomarkers in HIV disease progression and peroxisome activating drugs for HIV treatment” (priority 2017, dated 2023).
Entries after “also recorded” stand apart in the source; their conditions may differ.

How the values were obtained:
[1] = test system: peroxisomal protein PEX7; assay: PEX7 immunoblot in niclosamide-pretreated HIV-infected HeLa CD4+ cells; type: cell-based, human; settings: 48 hrs, relative to DMSO
Protocol: (§1) HeLa CD4+ cells were pretreated with the indicated concentrations of the peroxisome proliferator, niclosamide for 24 hrs or DMSO alone (vehicle control). Cells were then infected with HIV, MOI=0.5) for 48 hrs after which levels of the viral protein p24 and peroxisomal protein were measured by immunoblotting. Actin served as loading control.

[2] = test system: niclosamide-treated cells; assay: Relative cell viability by ATP levels in cell lysates; type: cell-based; settings: below 1 micromolar, 72 hours, vs DMSO, FIG. 20
Protocol: Cells treated with niclosamide or DMSO were harvested after 72 hours. Relative cell viability was determined by measuring ATP levels in the cell lysates.

[3] = test system: HIV p24 protein; assay: HIV p24 immunoblot in niclosamide-pretreated HeLa CD4+ cells; type: cell-based; settings: HeLa CD4+ cells pretreated 24 hrs, HIV MOI=0.5, 48 hrs, relative to DMSO, FIG. 18/19
Protocol: as §1

[4] = test system: HIV; assay: HIV p24 ELISA in niclosamide-pretreated HeLa CD4+ cells; type: cell-based; settings: HeLa CD4+ cells pretreated 24 hrs, HIV MOI=0.5, 48 hrs, vs DMSO, FIG. 17
Protocol: HeLa CD4+ cells were pretreated with the indicated concentrations of the peroxisome proliferator, niclosamide for 24 hrs or DMSO alone (vehicle control). Cells were then infected with HIV, MOI=0.5) for 48 hrs after which levels of the viral protein p24 were measured by ELISA.

## O=C(Nc1ccc([N+](=O)[O-])cc1Cl)c1cc(Cl)ccc1O [niclosamide, 5-chloro-N-(2-chloro-4-nitrophenyl)-2-hydroxybenzamide]
[1]; FIG. 19
  PEX7 protein level by immunoblotting: increases expression
[1]; FIG. 19, listed as Niclosamide
  PEX7 protein level by immunoblotting: increased expression
[2]
  cytotoxicity (relative cell viability, ATP levels): not cytotoxic
[3]
  HIV p24 protein level by immunoblotting: inhibits expression; also recorded: inhibits HIV replication
[3]; listed as Niclosamide
  HIV p24 protein level by immunoblotting: inhibited expression; also recorded: inhibited HIV replication
[4]
  HIV replication (levels of viral protein p24 by ELISA): potently and significantly inhibits HIV replication
[4]; listed as Niclosamide
  HIV replication (levels of viral protein p24 by ELISA): significantly inhibited HIV replication
